Results from patent publication US20220241333A1, “MODULATION OF T CELL CYTOTOXICITY AND RELATED THERAPY” (Cancer Research Technology Limited, priority 2019, published 2022).

Tests used:
CD4+ effector T cells = assay: GZMB expression in mouse CD4+ effector T cells treated with Bcl6 degrader (flow cytometry); type: cell-based; conditions: 10 nM, 72 h, low dose αCD3+αCD28 0.1 ug/ml
Experimental: Spleens and lymph nodes were taken from C57BL/6J mice, and processed through a 70 μm mesh using PBS, followed by red blood cell lysis using Red Blood cell lysis buffer (Sigma) according to the manufacturer's protocol. Lymphocytes were labelled with CellTrace Violet (ThermoFisher) according to manufacturer's protocol and cultured in RPMI media supplemented with 10% fetal bovine serum, 100 U/mL penicillin, 100 ug/ml streptomycin and 2 mM L-glutamine for 72 h. Cells were either left unstimulated or stimulated with αCD3 (clone 2C11, BioXcell) and αCD28 (clone 37.51, BioXcell) at 0.1 ug/ml. Cells were additionally treated with a Bcl6 degrader (BI-3802) or with a control compound (BI-5273), at a final concentration of 10 nM. […] Cells were stained for flow cytometry using a fixable viability dye (eBiosciences) and with directly conjugated antibodies against CD3, CD4, CD8, FoxP3, CD25, GzmB, PD-1 and Bcl6 using the FoxP3 Transcription factor staining Buffer set (ThermoFisher) according to the manufacturer's instructions.

Bcl6 = Bcl6 (Homo sapiens, UniProt P41182); conditions: compared with BI-3802; cited from earlier work
[1] = system: human CD4+ effector T cells; assay: GZMB expression in human CD4+ effector T cells (PBMCs) treated with Bcl6 targeting drugs (flow cytometry); type: cell-based; conditions: 100 nM, 72 h, low dose αCD3 0.5 ug/ml
Experimental: (§1) Healthy donor human PBMCs were labelled with CellTrace Violet (ThermoFisher) according to manufacturer's protocol and cultured in RPMI media supplemented with 10% fetal bovine serum, 100 U/mL penicillin, 100 ug/ml streptomycin and 2 mM L-glutamine for 72 h. Cells were either left unstimulated or stimulated with αCD3 (clone OKT3) at a final concentration of 0.5 ug/ml. Cells were additionally treated with Bcl6 targeting drugs, or with a control compound (BI-5273), at a final concentration of 100 nM. Cells were stained for flow cytometry using a fixable viability dye (eBiosciences) and with directly conjugated antibodies against human CD3, CD4, CD8, FoxP3, CD25, GzmB, and Bcl6 using the FoxP3 Transcription factor staining Buffer set (ThermoFisher) according to the manufacturer's instructions.

human CD8+ T cells = assay: GZMB and BCL6 expression in human CD8+ T cells (PBMCs) treated with Bcl6 targeting drugs (flow cytometry); type: cell-based; conditions: 100 nM, 72 h, low dose αCD3 0.5 ug/ml; compared to control compound BI-5273
Experimental: as §1

human naive CD4+ T cells = assay: GzmB expression in aCD3/aCD28-stimulated human naive CD4+ T cells; type: cell-based; conditions: blockade of IL-2R signalling with anti-human CD25
Experimental: FACS-purified human CD4^+ T cells were cultured in RPMI complete medium with irradiated autologous feeders cells in 1:1 ratio for 96 h, stimulated with aCD3 (OKT3) and aCD28 (9.3; BioXcell). To some wells anti-CD25 antibody (Basiliximab; Novartis) was added 48 hours post aCD3/CD28 stimulation.

[2] = system: CD4+ Trp1 and OT-II T cells; assay: GzmB upregulation in CD4+ Trp1 and OT-II TCR Tg T cells stimulated in vitro with antigen and cytokines; type: cell-based, mouse; conditions: low antigen concentration (0.01 μM OVA peptide), comparison of CGAMMA chain cytokines
Experimental: Purified CD4+ T cells (CD4 T cells beads, Miltenyi or CD4 Dyna Beads, Invitrogen) were cultured in RPMI complete medium (as above) together with DC and irradiated feeder cells (40 Gy) in 2:1:1 ratio for 72 or 96 h. Polyclonal CD4+ T cells were stimulated with anti-CD3 (2C11) and anti-CD28 (37.51) (BioXcell); OT-II cells with OVA peptide (Pepscan) and Trp-1 cells with Trp-1 peptide (Pepscan) at concentration indicated in figure legend. Mouse CD4 T cells were cultured with aCD25 (PC61) and aIL-2 (JES6-1A12, BioXcell).
We therefore evaluated the potential contribution of CGAMMA receptor cytokines to the upregulation of GzmB in tumour-reactive CD4^+ T cells.

[3] = compared to control compound BI-5273
[4] = relative to control compound BI-5273

CNC(=O)COc1cc2cc(Nc3nc(N4C[C@H](C)C[C@H](C)C4)ncc3Cl)ccc2n(C)c1=O [BI-3802]
Mean fluorescence intensity of GZMB in CD4+ effector T cells (CD4+ effector T cells; [3]): increased GZMB expression | Percentage of CD4+ effector T cells that express GZMB (CD4+ effector T cells; [4]): significantly greater percentage

C[C@@H]1C[C@H](C)CN(c2ncc(Cl)c(Nc3ccc4c(c3)cc(OC(C)(C)C(=O)O)c(=O)n4C)n2)C1 [BI-5273]
Bcl6 inhibitor activity (Bcl6): significantly reduced Bcl6 inhibitor activity

C[C@@H]1CN(c2ncc(Cl)c(Nc3ccc4c(c3)n(CCC(C)(C)O)c(=O)n4C)n2)C[C@H](C)C1(F)F [CCT369260, 5-((5-chloro-2-((3R,5S)-4,4-difluoro-3,5-dimethylpiperidin-1-yl)pyrimidin-4-yl)amino)-3-(3-hydroxy-3-methylbutyl)-1-methyl-1,3-dihydro-2H-benzo[d]imidazol-2-one]
Mean fluorescence intensity (MFI) of GZMB in human CD4+ effector T cells [1, 3]: increased GZMB expression | Percentage of human CD4+ effector T cells that express GZMB [1, 4]: significantly greater percentage | Percentage of human CD8+ T cells that express BCL6 (human CD8+ T cells): significantly lower percentage | Percentage of human CD8+ T cells that express GZMB (human CD8+ T cells): A decrease, although not statistically significant

Basiliximab
GzmB expression (human naive CD4+ T cells): significantly reduced GzmB expression to levels below those of the untreated control sample

B1: IL-7: cytokine (Peprotech) added to T cell cultures (protein, UniProt P13232 26-177, looked up)
Interleukin-7: DCDIEGKDGKQYESVLMVSIDQLLDSMKEIGSNCLNNEFNFFKRHICDANKEGMFLFRAARKLRQFLKMNSTGDFDLHLLKVSEGTTILLNCTGQVKGRKPAALGEAQPTKSLEENKSLKEQKKLNDLCFLKRLLQEIKTCWNKILMGTKEH
Induction of GzmB [2]: at a much lower level
